Test results published in patent US20250353864A1, “INDAZOLE CONTAINING MACROCYCLES AND THEIR USE” (BLOSSOMHILL THERAPEUTICS, INC., priority 2022, published 2025).

Columns and labels:
Assay type in all cases: biochemical
[1] = molecular target: EGFR (D770_N771insNPG) (Homo sapiens (Human), UniProt P00533, INS770NPG); assay: HotSpot radiometric kinase assay, EGFR (D770_N771insNPG); details: 10 μM ATP, read-out: EGFR (Δ770_N771insNPG) IC50
Procedure: (§1) Biochemical Assays for Inhibition of Wild-Type and Mutant EGFRs
(§2) Briefly, specific kinase/substrate pairs along with required cofactors were prepared in reaction buffer; 20 mM Hepes pH 7.5, 10 mM […], 1 mM EGTA, 0.02% Brij35, 0.02 mg/ml BSA, 0.1 mM Na3VO4, 2 mM DTT, 1% DMSO. Compounds were delivered into the reaction, followed […] later by addition of a mixture of ATP (Sigma, St. Louis MO) and ^33P ATP (Perkin Elmer, Waltham MA) to a final concentration of 10 μM. Reactions were carried out at room temperature for 120 min, followed by spotting of the reactions onto P81 ion exchange filter paper (Whatman Inc., Piscataway, NJ). Unbound phosphate was removed by extensive washing of filters in 0.75% phosphoric acid. […] IC50 values and curve fits were obtained using Prism (GraphPad Software).

[2] = molecular target: EGFR Δ746-750/C797S mutant (Homo sapiens (Human), UniProt P00533, C797S/DEL746-750); assay: HotSpot radiometric kinase assay, EGFR Δ746-750/C797S mutant; details: 10 μM ATP
Procedure: as §1, §2

[3] = molecular target: EGFR Δ746-750 mutant (Homo sapiens (Human), UniProt P00533, DEL746-750); assay: HotSpot radiometric kinase assay, EGFR Δ746-750 mutant; details: 10 μM ATP
Procedure: as §1, §2

[4] = molecular target: EGFR L858R mutant (Homo sapiens (Human), UniProt P00533, L858R); assay: HotSpot radiometric kinase assay, EGFR L858R mutant; details: 10 μM ATP
Procedure: as §1, §2

[5] = molecular target: EGFR WT (Homo sapiens (Human), UniProt P00533); assay: HotSpot radiometric kinase assay (Reaction Biology), EGFR WT; details: 10 μM ATP
Procedure: as §1, §2

[6] = molecular target: EGFR L858R/T790M/C797S mutant (Homo sapiens (Human), UniProt P00533, C797S/L858R/T790M); assay: HotSpot radiometric kinase assay, EGFR L858R/T790M/C797S mutant; details: 10 μM ATP
Procedure: as §1, §2

Chain of EGFR (D770_N771insNPG) (P00533 other isoform, or with tags, fused parts or gaps del 1-668/ins NPG behind 770 limits assumed): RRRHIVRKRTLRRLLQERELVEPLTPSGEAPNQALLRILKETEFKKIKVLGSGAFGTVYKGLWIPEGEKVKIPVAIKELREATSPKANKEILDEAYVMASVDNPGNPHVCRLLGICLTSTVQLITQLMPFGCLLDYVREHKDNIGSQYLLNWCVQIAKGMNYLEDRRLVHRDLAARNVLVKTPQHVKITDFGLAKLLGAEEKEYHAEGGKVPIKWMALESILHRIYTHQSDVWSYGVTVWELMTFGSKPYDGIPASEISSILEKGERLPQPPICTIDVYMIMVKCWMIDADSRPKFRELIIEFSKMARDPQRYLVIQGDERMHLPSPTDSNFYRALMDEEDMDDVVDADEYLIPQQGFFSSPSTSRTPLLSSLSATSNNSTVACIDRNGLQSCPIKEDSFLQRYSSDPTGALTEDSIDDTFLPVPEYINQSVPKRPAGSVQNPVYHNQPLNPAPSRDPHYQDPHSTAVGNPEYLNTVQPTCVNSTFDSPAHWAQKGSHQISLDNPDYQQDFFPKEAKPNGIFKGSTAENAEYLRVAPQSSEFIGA
Chain of EGFR Δ746-750 mutant (P00533 other isoform, or with tags, fused parts or gaps del 1-668/del 746-750 limits assumed): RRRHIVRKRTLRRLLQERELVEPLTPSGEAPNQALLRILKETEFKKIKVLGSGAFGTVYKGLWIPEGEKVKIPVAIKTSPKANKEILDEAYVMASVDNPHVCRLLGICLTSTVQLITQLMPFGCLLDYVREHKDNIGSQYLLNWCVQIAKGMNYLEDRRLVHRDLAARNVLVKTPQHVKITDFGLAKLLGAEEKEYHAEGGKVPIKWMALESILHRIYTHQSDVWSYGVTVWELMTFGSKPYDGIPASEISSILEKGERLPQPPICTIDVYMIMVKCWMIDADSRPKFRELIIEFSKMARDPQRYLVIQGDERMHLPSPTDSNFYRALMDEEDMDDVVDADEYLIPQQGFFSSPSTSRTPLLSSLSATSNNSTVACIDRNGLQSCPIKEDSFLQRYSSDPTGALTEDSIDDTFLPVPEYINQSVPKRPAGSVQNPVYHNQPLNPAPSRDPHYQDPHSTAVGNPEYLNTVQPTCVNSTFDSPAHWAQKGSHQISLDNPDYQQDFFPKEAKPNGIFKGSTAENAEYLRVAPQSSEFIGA
Chain of EGFR L858R mutant (P00533 25-1210 L858R): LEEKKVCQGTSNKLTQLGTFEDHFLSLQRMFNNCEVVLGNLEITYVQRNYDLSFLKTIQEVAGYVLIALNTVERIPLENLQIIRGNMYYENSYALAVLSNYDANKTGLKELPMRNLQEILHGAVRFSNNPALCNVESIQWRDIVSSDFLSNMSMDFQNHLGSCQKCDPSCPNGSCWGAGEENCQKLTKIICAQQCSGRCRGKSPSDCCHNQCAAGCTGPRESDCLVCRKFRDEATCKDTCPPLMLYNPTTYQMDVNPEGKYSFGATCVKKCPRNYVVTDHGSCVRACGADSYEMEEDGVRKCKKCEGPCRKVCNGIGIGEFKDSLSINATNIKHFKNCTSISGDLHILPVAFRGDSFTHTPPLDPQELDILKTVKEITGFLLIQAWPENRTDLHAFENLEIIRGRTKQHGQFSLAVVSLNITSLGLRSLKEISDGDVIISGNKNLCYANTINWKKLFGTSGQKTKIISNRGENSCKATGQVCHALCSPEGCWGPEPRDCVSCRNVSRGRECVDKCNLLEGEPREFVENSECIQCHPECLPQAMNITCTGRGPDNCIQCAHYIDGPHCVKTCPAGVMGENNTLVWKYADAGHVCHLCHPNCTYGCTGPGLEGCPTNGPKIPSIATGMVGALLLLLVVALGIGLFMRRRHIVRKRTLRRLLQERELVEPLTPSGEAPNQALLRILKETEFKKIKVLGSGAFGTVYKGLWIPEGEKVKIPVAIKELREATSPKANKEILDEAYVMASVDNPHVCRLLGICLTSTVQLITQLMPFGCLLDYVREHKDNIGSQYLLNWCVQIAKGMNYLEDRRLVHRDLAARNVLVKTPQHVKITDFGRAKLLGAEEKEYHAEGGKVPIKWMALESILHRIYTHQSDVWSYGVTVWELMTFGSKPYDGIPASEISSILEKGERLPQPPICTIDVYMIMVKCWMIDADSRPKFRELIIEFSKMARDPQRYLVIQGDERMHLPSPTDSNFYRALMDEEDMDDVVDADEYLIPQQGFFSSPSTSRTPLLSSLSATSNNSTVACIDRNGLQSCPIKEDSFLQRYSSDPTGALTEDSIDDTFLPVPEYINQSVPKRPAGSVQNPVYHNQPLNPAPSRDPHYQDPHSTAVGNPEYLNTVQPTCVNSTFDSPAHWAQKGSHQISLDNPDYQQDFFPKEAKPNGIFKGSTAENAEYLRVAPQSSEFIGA
Chain of EGFR Δ746-750/C797S mutant (P00533 other isoform, or with tags, fused parts or gaps C797S/del 1-668/del 746-750 limits assumed): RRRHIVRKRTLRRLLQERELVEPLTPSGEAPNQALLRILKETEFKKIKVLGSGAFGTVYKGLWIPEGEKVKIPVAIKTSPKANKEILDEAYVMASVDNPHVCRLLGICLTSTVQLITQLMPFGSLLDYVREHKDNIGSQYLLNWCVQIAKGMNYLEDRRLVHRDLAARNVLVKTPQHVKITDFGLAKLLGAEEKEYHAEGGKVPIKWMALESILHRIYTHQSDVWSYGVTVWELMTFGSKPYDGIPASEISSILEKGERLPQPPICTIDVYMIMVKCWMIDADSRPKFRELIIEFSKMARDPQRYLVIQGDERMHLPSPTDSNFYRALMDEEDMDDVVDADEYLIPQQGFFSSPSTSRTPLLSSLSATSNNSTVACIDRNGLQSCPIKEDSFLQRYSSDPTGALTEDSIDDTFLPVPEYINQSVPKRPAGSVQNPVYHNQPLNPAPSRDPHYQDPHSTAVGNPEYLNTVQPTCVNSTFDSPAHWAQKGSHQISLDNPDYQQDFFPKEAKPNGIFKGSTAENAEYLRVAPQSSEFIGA
Chain of EGFR L858R/T790M/C797S mutant (P00533 25-1210 T790M/C797S/L858R): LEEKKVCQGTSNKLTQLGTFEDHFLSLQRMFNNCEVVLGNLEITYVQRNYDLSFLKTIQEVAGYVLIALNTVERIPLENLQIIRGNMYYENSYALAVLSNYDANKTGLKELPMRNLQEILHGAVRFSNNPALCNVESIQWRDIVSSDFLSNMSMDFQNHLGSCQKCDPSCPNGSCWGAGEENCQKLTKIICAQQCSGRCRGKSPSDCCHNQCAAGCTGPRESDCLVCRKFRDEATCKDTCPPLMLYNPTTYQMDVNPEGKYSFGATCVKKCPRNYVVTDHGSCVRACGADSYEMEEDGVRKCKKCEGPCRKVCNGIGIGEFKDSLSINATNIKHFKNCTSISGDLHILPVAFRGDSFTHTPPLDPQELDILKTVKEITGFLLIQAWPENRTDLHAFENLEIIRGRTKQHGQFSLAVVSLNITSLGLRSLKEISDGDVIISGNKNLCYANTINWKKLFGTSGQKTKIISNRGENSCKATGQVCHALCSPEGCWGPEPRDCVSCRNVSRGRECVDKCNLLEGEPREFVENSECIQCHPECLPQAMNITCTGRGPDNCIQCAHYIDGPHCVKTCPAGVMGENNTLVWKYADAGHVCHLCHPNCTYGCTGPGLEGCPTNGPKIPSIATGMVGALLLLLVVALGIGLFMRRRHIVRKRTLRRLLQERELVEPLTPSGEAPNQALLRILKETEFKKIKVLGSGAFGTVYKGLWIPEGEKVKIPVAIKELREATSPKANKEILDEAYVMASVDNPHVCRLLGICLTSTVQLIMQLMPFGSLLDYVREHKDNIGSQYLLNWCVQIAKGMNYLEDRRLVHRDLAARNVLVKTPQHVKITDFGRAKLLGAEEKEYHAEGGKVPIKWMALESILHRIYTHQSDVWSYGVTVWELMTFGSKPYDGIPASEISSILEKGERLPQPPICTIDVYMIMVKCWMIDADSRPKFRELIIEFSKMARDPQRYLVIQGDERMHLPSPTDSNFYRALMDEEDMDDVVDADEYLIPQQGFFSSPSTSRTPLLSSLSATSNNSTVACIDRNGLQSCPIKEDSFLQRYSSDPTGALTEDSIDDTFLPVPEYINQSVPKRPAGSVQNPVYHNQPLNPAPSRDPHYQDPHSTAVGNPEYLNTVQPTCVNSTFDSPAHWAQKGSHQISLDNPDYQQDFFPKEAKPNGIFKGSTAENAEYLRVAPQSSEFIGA

Row | SMILES | IC50 [1] | IC50 [2] | IC50 [3] | IC50 [4] | IC50 [5] | IC50 [6]
1 | Cc1nn(C)c2c1/C=C/c1n[nH]c3ccc(cc13)-c1cnn(C)c1CN(C)C[C@H](C)O2 (single isomer, unassigned) [Example 97] | 304 nM | 101 nM | 221 nM | – | – | –
2 | CCOc1nn(CCO)c2c1/C=C/c1n[nH]c3ccc(cc13)-c1cnn(C)c1O[C@H](C)[C@H]1CCCN1C2 (single isomer, unassigned) [compound 241] | 0.18 nM | 0.31 nM | 0.13 nM | – | – | –
3 | Cc1c2c(nn1CCN1CCCC1)CN(C)C[C@H](C)Oc1c(cnn1C)-c1ccc3[nH]nc(c3c1)/C=C/2 [Example 89, (10S,17E)-8,10,12,16-tetramethyl-15-[2-(pyrrolidin-1-yl)ethyl]-2,10,11,12,13,15-hexahydro-8H-3,5-ethenotripyrazolo[3,4-f:3′,4′-j:4″,3″-n][1,4]oxazacyclopentadecine] | 191 nM | 6.67 nM | 19.7 nM | – | – | –
4 | Cc1c2c(nn1CCN1CCCC1)OCCOC(C)c1c(cnn1C)-c1ccc3[nH]nc(c3c1)/C=C/2 (stereo not drawn) [Example 84, (17E)-8,9,16-trimethyl-15-[2-(pyrrolidin-1-yl)ethyl]-2,8,9,11,12,15-hexahydro-3,5-etheno[1,4]dioxacyclopentadecino[11,10-c:15,14-c′:6,7-c″]tripyrazole] | 551 nM | 130 nM | 381 nM | – | – | –
5 | Cn1ncc2c1OCCCCOc1ccccc1/C=C/c1n[nH]c3ccc-2cc13 [Ex. 16, (11E)-1-methyl-18,19,20,21-tetrahydro-1H,8H-10,7,4-(ethan[1]yl[1,2]diylidene)pyrazolo[3,4-g][1,6,13,14]benzodioxadiazacyclononad ecine] | 521 nM | – | 132 nM | 49.2 nM | 523 nM | 48.4 nM
6 | Cc1c2c(nn1[C@H]1CCN(C)C[C@@H]1O)OCCCOc1c(cnn1C)-c1ccc3[nH]nc(c3c1)/C=C/2 (racemic) [Example 83, (rac)-4-[(17E)-8,16-dimethyl-2,8,11,12-tetrahydro-10H,15H-3,5-etheno[1,5]dioxacyclopentadecino[10,11-c:15,14-c′:6,7-c″]tripyrazol-15-yl]-1-methylpiperidin-3-ol] | 55.4 nM | 31.3 nM | 34.6 nM | – | – | –
7 | CCOc1nn(CCO)c2c1/C=C/c1n[nH]c3ccc(cc13)-c1cnn(C)c1OC1CCCN(C2)C1C (stereo not drawn) [Example 242, 2-[(19E)-18-ethoxy-8,21-dimethyl-2,10,11,12,13,15-hexahydro-3,5-etheno-10,14-methanotripyrazolo[3,4-h:3′,4′-l:4″,3″-p][1,6]oxazacycloheptadecin-16(8H)-yl]ethan-1-ol] | 304 nM | 40.3 nM | 55.5 nM | – | – | –
8 | Cc1nn(C)c2c1/C=C/c1n[nH]c3ccc(cc13)-c1c(C)nn(C)c1OCCN(C)C2 [Example 47, (17E)-6,8,12,14,16-pentamethyl-2,10,11,12,13,14-hexahydro-8H-3,5-ethenotripyrazolo[3,4-f:3′,4′-j:4″,3″- n][1,4]oxazacyclopentadecine] | > 1000 nM | 944 nM | 488 nM | – | – | –
9 | Cc1ccc2c(n1)/C=C/c1n[nH]c3ccc(cc13)-c1cnn(C)c1O[C@@H](C)CCO2 [Ex. 39, (10S,18E)-8,10,16-trimethyl-2,8,11,12-tetrahydro-10H-3,5-ethenodipyrazolo[3′,4′:10,11;4″,3″:14,15] [1,5]dioxacyclopentadecino[7,6-b]pyridine] | 1440 nM | – | 176 nM | – | – | –
10 | CNC(=O)c1cnc2c(c1)/C=C/c1n[nH]c3ccc(cc13)-c1cnn(C)c1COCCO2 [Example 3, (18E)-N,8-dimethyl-8,9,11,12-tetrahydro-2H-3,5-ethenodipyrazolo[3′,4′:9,10;4″,3″:13,14] [1,4]dioxacyclopentadecino[5,6-b]pyridine-16-carboxamide] | – | – | – | – | – | 863 nM

Continued, values first:

Row | IC50 [1] | IC50 [2] | IC50 [3] | IC50 [4] | IC50 [5] | IC50 [6] | SMILES
11 | 457 nM | – | 155 nM | 242 nM | 1260 nM | 37.3 nM | Cc1nn(CCN2CCCC2)c2c1/C=C/c1n[nH]c3ccc(cc13)-c1cnn(C)c1OCCCO2 [Ex. 32, (17E)-8,16-dimethyl-14-[2-(pyrrolidin-1-yl)ethyl]-2,11,12,14-tetrahydro-8H,10H-3,5-etheno[1,5]dioxacyclopentadecino[10,11-c:15,14-c′:6,7-c″ ]tripyrazole]
12 | 713 nM | – | 74.3 nM | – | – | – | CCc1nn(C)c2c1/C=C/c1n[nH]c3ccc(cc13)-c1cnn(C)c1OCCCO2 [Ex. 10, (17E)-16-ethyl-8,14-dimethyl-2,11,12,14-tetrahydro-8H,10H-3,5-etheno[1,5]dioxacyclopentadecino[10,11-c:15,14-c′:6,7-c″]tripyrazole]
13 | 1770 nM | – | 755 nM | > 1000 nM | > 1000 nM | 315 nM | Cc1c2c(nn1CCO)OCCCOc1c(cnn1C)-c1ccc3[nH]nc(c3c1)/C=C/2 [Ex. 24, 2-[(17E)-8,16-dimethyl-2,8,11,12-tetrahydro-10H,15H-3,5-etheno[1,5]dioxacyclopentadecino[10,11-c:15,14-c′:6,7-c″]tripyrazol-15-yl]ethan-1-ol]
14 | 731 nM | – | 58.7 nM | 67.7 nM | 927 nM | 4.93 nM | CC(=O)Cn1nc(C)c2c1OCCCOc1c(cnn1C)-c1ccc3[nH]nc(c3c1)/C=C/2 [Example 31, 1-[(17E)-8,16-dimethyl-2,8,11,12-tetrahydro-10H,14H-3,5-etheno[1,5]dioxacyclopentadecino[10,11-c:15,14-c′:6,7-c″]tripyrazol-14-yl]propan-2-one]
15 | 945 nM | – | 284 nM | 349 nM | 1170 nM | 27.2 nM | Cc1c2c(nn1C)OCCCOc1c(cnn1C)-c1ccc3[nH]nc(c3c1)/C=C/2 [Ex. 9, (17E)-8,15,16-trimethyl-2,11,12,15-tetrahydro-8H,10H-3,5-etheno[1,5]dioxacyclopentadecino[10,11-c:15,14-c′:6,7-c″]tripyrazole]
16 | > 1000 nM | – | 819 nM | 1000 nM | > 1000 nM | 578 nM | Cc1c2c(nn1CC(C)(C)O)OCCCOc1c(cnn1C)-c1ccc3[nH]nc(c3c1)/C=C/2 [Ex. 28, 1-[(17E)-8,16-dimethyl-2,8,11,12-tetrahydro-10H,15H-3,5-etheno[1,5]dioxacyclopentadecino[10,11-c:15,14-c′:6,7-c″ ]tripyrazol-15-yl]-2-methylpropan-2-ol]
17 | 983 nM | – | 217 nM | 268 nM | 1300 nM | 36.8 nM | Cc1nn(CC(C)(C)O)c2c1/C=C/c1n[nH]c3ccc(cc13)-c1cnn(C)c1OCCCO2 [Example 30, 1-[(17E)-8,16-dimethyl-2,8,11,12-tetrahydro-10H,14H-3,5-etheno[1,5]dioxacyclopentadecino[10,11-c:15,14-c′:6,7-c″]tripyrazol-14-yl]-2-methylpropan-2-ol]
18 | 191 nM | – | 154 nM | 114 nM | 326 nM | 40.9 nM | Cc1c2c(nn1CCN1CCCC1)OCCCOc1c(cnn1C)-c1ccc3[nH]nc(c3c1)/C=C/2 [Example 34, (17E)-8,16-dimethyl-15-[2-(pyrrolidin-1-yl)ethyl]-2,11,12,15-tetrahydro-8H,10H-3,5-etheno[1,5]dioxacyclopentadecino[10,11-c:15,14-c′:6,7-c″]tripyrazole]
